Source: patent publication US9932339B2, “Helquats with heteroaromatic substituents, preparation thereof, and use thereof as G-quadruplex stabilizers” (USTAV ORGANICKE CHEMIE A BIOCHEMIE AV CR, V.V.I., priority 2014, dated 2018)

Test system: c-Myc27 oligonucleotide G-quadruplex
Test: ECD melting curve of c-Myc27 oligonucleotide G-quadruplex with ligands
Assay type: binding
Conditions: ECD at 263 nm; molar ratio oligonucleotide:ligand 1:1 (5 μmol l^−1 each); Li+-cacodylate buffer
Procedure: ECD spectra were measured on J-815 spectrometer (Jasco, Japan). Measurement settings (Tab. 3), spectra saving and background subtraction was performed in a Spectra Manager software (Jasco, Japan).
For measurement of the temperature dependencies the cuvettes in the cuvette compartment were placed in the Peltier module, the temperature was controlled by the Spectra Manager software. Melting curves were measured at a wavelength which corresponds to the maximum difference in signal intensity of ECD spectra of oligonucleotide at 25 and 95° C., as shown in FIG. 1. Before and after measuring the melting curves, ECD spectra in extreme temperatures were measured, in order to verify the stability of the studied system.
Processing of the spectra was performed using Spectra Manager (Jasco, Japan). The resulting spectra were obtained from the measured sample spectrum after subtraction of background spectrum, which was spectrum of the solvent. Measuring of sample spectrum and background was conducted under identical conditions. ECD spectra are reported as ellipticity, labeled in the CD figures [mdeg], whose numerical value is associated with dimensionless circular dichroism ΔA (CDv=32980 ΔAv). This CD notations preserves conventions of the international journals in which articles from the field are published.
Stock solution of […] was prepared from c-Myc27 oligonucleotide by dissolution in H2O. The cuvette of 1 mm thickness was filled with 7 μl of oligonucleotide solution and 133 μl of Li^+-cacodylate buffer. Oligonucleotide solution in the cuvette was overlayed with mineral oil to measure temperature dependencies without concentration changes due to evaporation of the solvent at higher temperatures.
From stock solutions of the racemic ligands in DMSO at a concentration of […] solutions were prepared at a concentration of 140 μmol l^−1 by dissolving in H2O. Ligands were added to the solution of oligonucleotide under buffer/mineral oil interface using Hamilton microsyringe (5 μl of solution at a concentration of […]). The resulting molar ratio of oligonucleotide:ligand was 1:1.
The cuvette filled with c-Myc27 oligonucleotide solution in Li^+-cacodylate buffer (cc-Myc27=5 μmol l^−1) was first heated for 5 minutes at 95° C., at this temperature ECD spectrum was measured. Then the sample was cooled to 25° C., allowed to stabilize for 10 min and then ECD spectrum was measured again. Then, the melting curve of ECD oligonucleotide at 263 nm was measured in the temperature range 25-95° C. and for verification of the stability of the sample spectra the spectra were measured again at 95 and 25° C. Under the oil layer ligand solution (cligand=5 μmol l^−1) was added to a solution of oligonucleotide, the sample was thoroughly mixed and ECD spectrum measured at 25° C., the melting curve was obtained and again control spectra were measured at 95 and 25° C.
Decomposition of the G-quadruplex structure in the presence of ligands under influence of temperature was monitored at the wavelength corresponding to the maximum difference in signal intensities of ECD oligonucleotide/ligand at 25 and 95° C., i.e. at 263 nm. Thermal stability of G-quadruplex was monitored in the range of 25 to 95° C. and in a molar ratio of oligonucleotide:ligand=1:1. Example of influence of the studied ligand on the stability of G-quadruplex formed from c-Myc27 oligonucleotide is shown in FIG. 2.
The degree of G-quadruplex stabilization was expressed as change of melting temperature caused by the presence of G-quadruplex ligands (ΔTm): ΔTm=Tm,oligonucleotide+ligand−Tm,oligonucleotide (1), • where Tm,oligonucleotide+ligand is melting temperature of molecular system comprising the oligonucleotide and the ligand and Tm,oligonucleotide, the melting temperature of the oligonucleotide itself. Tab. 4 summarizes the changes in melting temperatures of c-Myc27 oligonucleotide G-quadruplex in the presence of studied ligands.

SMILES: Cc1c(C)c2c(c3c1CC[n+]1ccc(/C=C/c4cccc5c4oc4ccccc45)cc1-3)-c1c3ccccc3cc[n+]1CC2 (racemic) [MJA-C13-8, (rac)-(E)-13-(2-(dibenzo[b,d]furan-4-yl)vinyl)-6,7-dimethyl-4,5,8,9-tetrahydroisoquinolino[1,2-a]pyrido[1,2-k][2,9]phenanthroline-3,10-diium trifluoromethanesulfonate]
- ΔTm (° C.): 6.8 °C
